Assay: mn = molality of the nth substance listed, in mol/kg
Settings: 100 kPa, Liquid; for viscosity: Capillary tube (Ostwald / Ubbelohde) method; for mass density: Vibrating tube method

OC[C@@H](O)[C@H](O)[C@@H](O)CO [xylitol] + O
Settings | mass density, m1 = 0.2002 [kg/m3] | mass density, m1 = 0.4 [kg/m3] | mass density, m1 = 0.5996 [kg/m3] | mass density, m1 = 0.7997 [kg/m3] | mass density, m1 = 1 [kg/m3] | viscosity, m1 = 0.2002 [mPa·s] | viscosity, m1 = 0.4 [mPa·s] | viscosity, m1 = 0.5996 [mPa·s] | viscosity, m1 = 0.7997 [mPa·s] | viscosity, m1 = 1 [mPa·s]
293.15 K | 1008.14 | 1017.61 | 1026.67 | 1035.36 | 1043.71 | 1.081 | 1.168 | 1.249 | 1.343 | 1.449
303.15 K | 1005.4 | 1014.72 | 1023.62 | 1032.15 | 1040.36 | 0.858 | 0.917 | 0.981 | 1.056 | 1.125
313.15 K | 1001.83 | 1010.99 | 1019.76 | 1028.15 | 1036.24 | 0.699 | 0.743 | 0.792 | 0.845 | 0.901
323.15 K | 997.51 | 1006.53 | 1015.16 | 1023.43 | 1031.37 | 0.582 | 0.617 | 0.655 | 0.695 | 0.739

OC[C@@H](O)[C@@H](O)[C@H](O)[C@H](O)CO [mannitol] + O
Settings | mass density, m1 = 0.2003 [kg/m3] | mass density, m1 = 0.4001 [kg/m3] | mass density, m1 = 0.5999 [kg/m3] | mass density, m1 = 0.7997 [kg/m3] | mass density, m1 = 1 [kg/m3] | viscosity, m1 = 0.2003 [mPa·s] | viscosity, m1 = 0.4001 [mPa·s] | viscosity, m1 = 0.5999 [mPa·s] | viscosity, m1 = 0.7997 [mPa·s] | viscosity, m1 = 1 [mPa·s]
293.15 K | 1010.6 | 1022.32 | 1033.48 | 1044.08 | 1054.22 | 1.106 | 1.219 | 1.345 | 1.486 | 1.634
303.15 K | 1007.89 | 1019.47 | 1030.47 | 1040.9 | 1050.86 | 0.875 | 0.957 | 1.048 | 1.151 | 1.256
313.15 K | 1004.33 | 1015.78 | 1026.64 | 1036.96 | 1046.81 | 0.713 | 0.774 | 0.842 | 0.918 | 0.996
323.15 K | 1000.02 | 1011.34 | 1022.08 | 1032.29 | 1042.03 | 0.592 | 0.64 | 0.693 | 0.751 | 0.811

— the NIST ThermoML archive (doi:10.1021/je400395u)
